# In patent US5098934A, “Method of relieving pain with mercaptoalkanamides” (Roussel Uclaf, priority 1983, dated 1992):
# Target: T1, Enkephalinase (Rattus norvegicus, UniProt P07861)
# T1 construct: from tissue; host or cells: rat striatum, membrane (particulate) fraction
# T1 sequence (P07861 1-750): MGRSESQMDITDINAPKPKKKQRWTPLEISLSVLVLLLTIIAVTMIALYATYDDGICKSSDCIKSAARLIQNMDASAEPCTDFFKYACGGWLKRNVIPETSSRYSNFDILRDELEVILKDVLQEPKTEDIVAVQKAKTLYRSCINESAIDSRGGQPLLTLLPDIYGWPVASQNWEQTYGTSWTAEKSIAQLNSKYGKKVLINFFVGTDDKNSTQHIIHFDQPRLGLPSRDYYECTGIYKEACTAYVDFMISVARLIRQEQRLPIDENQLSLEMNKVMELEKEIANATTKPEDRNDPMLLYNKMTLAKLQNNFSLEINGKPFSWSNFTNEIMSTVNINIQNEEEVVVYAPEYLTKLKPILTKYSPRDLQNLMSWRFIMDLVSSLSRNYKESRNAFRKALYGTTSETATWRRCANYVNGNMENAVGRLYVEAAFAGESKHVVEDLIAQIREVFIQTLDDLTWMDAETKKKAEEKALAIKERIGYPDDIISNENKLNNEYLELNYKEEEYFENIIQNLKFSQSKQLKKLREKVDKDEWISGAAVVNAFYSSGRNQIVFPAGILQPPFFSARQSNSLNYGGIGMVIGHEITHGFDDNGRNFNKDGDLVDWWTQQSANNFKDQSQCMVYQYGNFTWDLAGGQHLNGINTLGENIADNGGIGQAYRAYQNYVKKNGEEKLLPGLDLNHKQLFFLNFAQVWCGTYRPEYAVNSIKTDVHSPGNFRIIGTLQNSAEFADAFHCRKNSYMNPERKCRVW
# Experiment: Inhibition of enkephalinase (rat striatum membrane fraction, tritiated leucine-enkephaline)
# Format: biochemical, rats
# Conditions: 20 nanomole tritiated leucine-enkephaline, 1 mM puromycin, 25° C., 15 minutes, pH 7.4, read-out: Enkaphalinase inhibition CI50 (50% inhibitory concentration)
# Protocol: Enkephalinase activity was determined in a striatum membrane fraction of rats. The striatum was placed in ice and was homogenized in buffered 0.05M Tris with a pH of 7.4 (20 times the volume) and after a first centrifugation at 1000 g, the particular fraction obtained was subjected to two centrifugations for 10 minutes at 20,000 g. The culot was then suspended in buffered Tris and kept at 4° C. The amount of proteins was determined by the Comassie blue method.
# After preincubation at 25° C. for 15 minutes, an aliquot of proteins was incubated at 25° C. for 15 minutes in the presence of 20 nanomole of tritiated leucine-enkephaline (against the first amino acid) previously purified, of 1 mM of puromycin and the test product in buffered Tris. The hydrolysis reaction was stopped by addition of 0.2N hydrochloric acid and the incubate was subjected to a deproteinization by heating at 95° C. for 15 minutes. Under these conditions, the kinetic reaction was linear. The tritiated metabolites obtained by hydrolysis were separated from enkephaline by chromatography over a column of porapak Q and elution with buffered Tris whereby enkephaline was retained in the column and was released in the following ethanolic phase. The activity of the different products was expressed in 50% inhibitory concentration called CI50 in Table II.
row,Structure (SMILES),IC50 [nM]
1,"CC(=O)SCC(Cc1ccccc1)C(=O)Nc1ccccc1 (stereo not drawn) [Example 1, Ethanethioate of S-[3-oxo-3-phenylamino-2-benzyl-propyl]]",10000
2,"CC(=O)SCC(Cc1ccccc1)C(=O)Nc1ccc(Cl)cc1 (stereo not drawn) [Example 3, Ethanethioate of S-[3-(4-chlorophenylamino)-3-oxo-2-benzylpropyl]]",1000
3,"O=C(Nc1ccc(Cl)cc1)C(CS)Cc1ccccc1 (stereo not drawn) [Example 4, N-(4-chlorophenyl)-α-mercaptomethyl-benzene-propanamide]",1000

# The remaining lines, values ahead:
row,IC50 [nM],Structure (SMILES)
1,1000,"O=C(Nc1ccccc1)C(CS)Cc1ccccc1 (stereo not drawn) [Example 2, α-mercaptomethyl-N-phenyl-benzene propanamide]"
2,100,"O=C(Nc1ccncc1)C(CS)Cc1ccccc1 (stereo not drawn) [Example 30, N-(4-pyridinyl) α-(mercaptomethyl)-benzene-propanamide]"
3,50,"COc1ccc(NC(=O)C(CS)Cc2ccccc2)cc1 (stereo not drawn) [Example 36, N-(4-methoxyphenyl) α-(mercaptomethyl)-benzene-propanamide]"
4,60,"COc1cccc(NC(=O)C(CS)Cc2ccccc2)c1 (stereo not drawn) [Example 38, N-(3-methoxyphenyl) α-(mercaptomethyl)-benzene-propanamide]"
